From patent publication US20060035291A1, “Method of detecting cellular immunity and application thereof to drugs” (priority 2001, published 2006)
Where no end group is shown, it is not given here.

What was measured:
cancer patients [1] = test: Skin test for immediate and delayed type hypersensitivity in cancer patients; settings: for immediate hypersensitivity reaction in skin test: human, in vivo; for type I allergy in skin tests during the course of vaccination: skin tests before the 9th and 17th dose (ART413, SART3315), 3rd pre-vaccination skin test (CypB91)
Experimental: For the skin test, 10 μg of 5 kinds of peptides was subcutaneously administered to each patient. Saline was used as the negative control. 20 minutes and 24 hours after injection, immediate and delayed type hypersensitivity (DHT) reactions were looked for. The skin test reaction was determined as positive if erythema and sclerosis were more than 10 mm in diameter. If the immediate hypersensitivity reaction was negative, a peptide was administered. Each peptide solution (3 mg/ml) was mixed with the same amount of IFA (Montanide ISA-51) and emulsified in a 5-mI plastic syringe, and 3 ml of the emulsion was subcutaneously administered to the lateral femoral region every two weeks. Serum PSA level was measured 4 weeks after vaccination. The time passed was defined as the time from the registration day to the date when the progress of the target disease was recorded. For patients who chose to discontinue the study without any progress of the target disease (e.g., increase in PSA) it was determined that the disease had progressed at the time the study was stopped.
When an immediate hypersensitivity reaction positive in the skin test of one of these peptides, that peptide was vaccinated if the fifth peptide of criteria A, B, or Z was negative in the skin test. […] In Table 14, o signifies vaccine peptides given to each patient.
Vaccine was administered to HLA-A24 positive patients with progressive cancer as following. CypB91 was given to lung cancer patients, ART475 to ovarian cancer patients, and SART3109 to colorectal cancer patients. None of the patients received any steroids or other immunosuppressants from 4 weeks before the beginning of this study to the end of the study. When the skin test was negative, 1 ml of peptide solution (1 mg/ml) was emulsified with the same amount of Freund's incomplete adjuvant (Montanide ISA-51) and injected subcutaneously. In this embodiment, all patients were vaccinated at least three times every two weeks, and up to seventeen times, depending on the patient's wishes.

healthy donors = settings: in vivo
cancer patients [2] = settings: cancer patients (Miyagi et al., Clin. Cancer Res. 7:3950, 2001); cited from earlier work
[3] = test system: CD8 positive and HLA-A24/peptide tetramer positive T cells; settings: PBMCs of healthy donors sensitized in vitro with EBV peptide, protocol C
Experimental: Recombinant HLA-A2402 a chains containing a biotinated portion and recombinant β2-microglobline were synthesized and used for refolding of soluble HLA molecules in the presence of HLA-A2402 binding peptides. […] Monomer HLA-peptide complex was biotinated with BirA in the a chain, which was isolated form free biotin by gel filtration. The biotinated HLA was tetramerized with 4:1 molar ratio of Strept-avidin-PE. PBMCs sensitized in vitro were re-suspended at the ratio of 5×10^5 cells per 25 μl of phosphate buffer saline (PBS) containing 20% of human AB serum. […] After that, the cells were washed with PBS and analyzed using FACScan. Twenty thousand events were obtained.
More specifically, PBMCs stimulated according to protocol C determined in Example 3 were analyzed by the tetramer assay as described above.

[4] = test system: HLA-A24 restricted antigen peptide-specific T cells (CTL precursors) in PBMCs; assay type: cell-based, human

Sequence	immediate hypersensitivity reaction in skin test (cancer patients [1])	type I allergy in skin tests during the course of vaccination (cancer patients [1])	rate of skin reaction occurrence (donors) (healthy donors)	rate of skin reaction occurrence (healthy donors)	allergic skin reaction in pre-vaccination study (cancer patients [2])	further results
DFMIQGGDF [CypB91]	positive in all patients	induced type I allergy	no such response	–	–	–
KFHRVIKDF [CypB84]	–	–	39/41	95%	–	patients with immediate hypersensitivity reaction in pre-vaccination skin test (cancer patients [1]; vaccinated patients with lung cancer, Phase I clinical trial): 8 of 10
SYTRLFLIL [SART2899]	positive in all patients	–	10/40	25%	induced allergic skin reaction	–
RYLRQQLLGI [HIV peptide]	–	–	–	–	–	ratio of the CD8 positive and HLA-A24/peptide tetramer positive subsets [3]: 0.03%
AFLRHAAL [ART413, AFLRHAAL]	positive in all patients	did not induce type I allergy	38/40	95%	induced allergic skin reaction	–
TYGPVFMCL [EBV, reference compound]	–	–	–	–	–	detection of peptide-specific T cells [4]: detected in all 10 donors; difference in IFN-γ production between target cells sensitized with EB virus peptide and HIV peptide [4]: 2775 pg/mL; difference in production level of IFN-γ between target cells sensitized with EB virus peptide and HIV peptide [4]: more than 300 pg/ml; ratio of the CD8 positive and HLA-A24/peptide tetramer positive subsets [3]: 1.15%
AYIDFEMKI [SART3315]	–	did not induce type I allergy	18/40	45%	induced allergic skin reaction	–
